Source: PubChem BioAssay AID743496 (The Scripps Research Institute Molecular Screening Center, 2014)
Active and inactive are the calls of the source. No rule for the calls is given here.

test system: Ga16-expressing cells, calcium fluorescence, counterscreen for TAAR1 agonists; experiment: nonselective Ga16 agonists, potency, SAR follow-up, counter-screen for TAAR1 agonist project, cell-based, fluorescence, dose response, MedChem round 1 (AID 743496)

Row | SMILES | EC50
1 | NC(=O)CCN1C[C@H](c2ccccc2)[C@@H]2[C@H]1C1CCN2CC1 | > 29.9 µM (inactive)
2 | CC1CN(CCC(=O)c2ccc3c(c2)OCCO3)CC1c1ccccc1 (stereo unspecified) | > 29.9 µM (inactive)
3 | CC(CN1CCC(c2ccccc2)C1)C(=O)c1ccc2c(c1)OCCO2 (stereo unspecified) | > 29.9 µM (inactive)
4 | Cc1ccc(C(=O)CCN2CCC(c3ccccc3)C2)cc1 (stereo unspecified) | > 29.9 µM (inactive)
5 | O=C(CCN1C[C@@H](C(=O)O)[C@H](c2ccccc2)C1)NC1CCCC1 | > 29.9 µM (inactive)
6 | O=C(CCN1CCC(c2ccccc2)C1)c1ccccc1 (stereo unspecified) | > 29.9 µM (inactive)
7 | O=C(CCN1CCC(O)(c2ccccc2)C1)c1ccc2c(c1)OCCO2 (stereo unspecified) | > 29.9 µM (inactive)
8 | O=C(CCN1C[C@@H](C(=O)O)[C@H](c2ccccc2)C1)NCc1cccs1 | > 29.9 µM (inactive)
9 | O=C(CCN1CCC(O)(c2ccc(F)cc2)C1)c1ccc2c(c1)OCCO2 (stereo unspecified) | > 29.9 µM (inactive)
10 | CC(CN1CCCC1Cc1ccccc1)C(=O)c1ccc2c(c1)OCCO2 (stereo unspecified) | > 29.9 µM (inactive)
11 | O=C(CCN1C[C@@H](C(=O)O)[C@H](c2cccc(F)c2)C1)NC1CC1 | > 29.9 µM (inactive)
